Assays:
[1] = Cytotoxicity against MDCK cells after 40 hrs by Celltiter-Glo assay; assay type: cell-based, Canis lupus familiaris; conditions: dog
Influenza B virus = experiment: Antiviral activity against influenza B virus B/SZ/155 infected in dog MDCK cells assessed as inhibition of virus induced cytopathic effect after 40 hrs by Cell-Titer-Glo assay; assay type: functional, organism-based; conditions: B/SZ/155, MDCK
Influenza A virus = experiment: Antiviral activity against Influenza A virus A/WSN/1933 (H1N1) infected in MDCK cells assessed as protection against virus induced cytopathic effect after 40 hrs by Celltiter-Glo assay; assay type: functional, organism-based
[2] = test system: Influenza A virus (A/WSN/1933(H1N1)); experiment: (§1) Binding affinity to Influenza A virus A/WSN/33 (H1N1) HA1 protein by surface plasmon resonance assay
[3] = Inhibition of Influenza A virus A/WSN/33 (H1N1) HA1 protein by surface plasmon resonance assay; design: species or system Influenza A virus (A/WSN/1933(H1N1))
[4] = Binding affinity to Influenza A virus A/WSN/33 (H1N1) HA1 protein assessed as decrease in protein affinity to sialic acid receptor by surface plasmon resonance assay (reference value: 70 nM); design: species or system Influenza A virus (A/WSN/1933(H1N1))
[5] = test system: Influenza A virus (A/WSN/1933(H1N1)); experiment: Binding affinity to Influenza A virus A/WSN/33 (H1N1) HA1 protein assessed as decrease in protein affinity to sialic acid receptor at 20 uM by surface plasmon resonance assay
[6] = test system: Influenza A virus (A/WSN/1933(H1N1)); experiment: Binding affinity to Influenza A virus A/WSN/33 (H1N1) HA1 protein assessed as decrease in protein affinity to sialic acid receptor at 10 uM by surface plasmon resonance assay
[7] = test system: Influenza A virus (A/WSN/1933(H1N1)); experiment: Binding affinity to Influenza A virus A/WSN/33 (H1N1) HA1 protein assessed as decrease in protein affinity to sialic acid receptor at 5 uM by surface plasmon resonance assay
[8] = test system: Influenza A virus (A/WSN/1933(H1N1)); experiment: Binding affinity to Influenza A virus A/WSN/33 (H1N1) HA1 protein assessed as decrease in protein affinity to sialic acid receptor at 2.5 uM by surface plasmon resonance assay
[9] = test system: Influenza A virus (A/WSN/1933(H1N1)); experiment: Binding affinity to Influenza A virus A/WSN/33 (H1N1) HA1 protein assessed as decrease in protein affinity to sialic acid receptor at 1.25 uM by surface plasmon resonance assay
[10] = test system: Influenza A virus (A/WSN/1933(H1N1)); experiment: Binding affinity to Influenza A virus A/WSN/33 (H1N1) HA1 protein assessed as decrease in protein affinity to sialic acid receptor at 0.625 uM by surface plasmon resonance assay
[11] = test system: Influenza A virus (A/WSN/1933(H1N1)); experiment: Binding affinity to Influenza A virus A/WSN/33 (H1N1) HA1 protein assessed as decrease in protein affinity to sialic acid receptor by measuring association constant by surface plasmon resonance assay (reference value: 20810/s)
[12] = Binding affinity to Influenza A virus A/WSN/33 (H1N1) HA1 protein assessed as decrease in protein affinity to sialic acid receptor by measuring dissociation constant by surface plasmon resonance assay (reference value: 0.001473/Ms); design: species or system Influenza A virus (A/WSN/1933(H1N1))
[13] = test system: Influenza A virus (A/WSN/1933(H1N1)); experiment: Binding affinity to Influenza A virus A/WSN/33 (H1N1) HA1 protein assessed as decrease in protein affinity to sialic acid receptor at 20 uM by surface plasmon resonance assay relative to control
[14] = as §1; design: species or system Influenza A virus (A/WSN/1933(H1N1))

SMILES | CC50 at 40 h [1] [µM] | IC50 (Influenza A virus) [µM] | Kd [4] [µM] | Activity [5] [RU] | Activity [6] [RU] | Activity [7] [RU] | Activity [8] [RU] | Activity [9] [RU] | Activity [10] [RU] | Ka [11] [s⁻¹] | Kd [12] [M⁻¹ s⁻¹] | also measured
NC(=O)c1ncn([C@@H]2O[C@H](CO)[C@@H](O)[C@H]2O)n1 [RIBAVIRIN] | > 200 |  |  |  |  |  |  |  |  |  |  | EC50 (Influenza B virus): 4.28 µM
CCCc1cc(O)cc(OC)c1Oc1c(Cl)c(O)c(Cl)c2c1C(=O)O[C@@H]2CC | > 100 | 74.9 | 0.224 | 114 | 55.1 | 27.1 | 13 | 7 | 3.4 | 3560 | 0.0007964 | Ka [2]: 0.46 ×10⁴ /Ms; IC50 [3]: 74.9 µM
COc1cc(/C=C/C(=O)CC(=O)/C=C/c2ccc(O)c(OC)c2)ccc1O [CURCUMIN] |  |  | 0.507 | 78.8 | 36.4 | 16.1 | 6.8 | 2.7 | 0.8 | 2660 | 0.001351 | fold change (FC) [13]: 8
CCCc1cc(O)c(Cl)c(OC)c1Oc1c(Cl)c(O)c(Cl)c2c1C(=O)O[C@@H]2CC | > 100 | 11.4 |  |  |  |  |  |  |  |  |  | Kd [14]: 55 µM; Ka [2]: 0.77 ×10⁴ /Ms; IC50 [3]: 11.4 µM
CCOC(=O)c1c(CSc2ccccc2)n(C)c2cc(Br)c(O)c(CN(C)C)c12 [UMIFENOVIR] |  |  | 0.081 | 102 | 48.7 | 20.7 | 7.5 | 1.2 | -1.8 | 11800 | 0.0009582 | 
CCCc1c(Cl)c(OC)c(Cl)c(O)c1Oc1c(Cl)c(O)c(Cl)c2c1C(=O)O[C@@H]2CC | > 50 | > 50 |  |  |  |  |  |  |  |  |  | 
CC[C@H]1OC(=O)c2c(O)c(Cl)c(O)c(Cl)c21 | > 100 | > 100 |  |  |  |  |  |  |  |  |  | 
CCCc1c(Cl)c(O)c(Cl)c(O)c1Oc1c(Cl)c(O)c(Cl)c2c1C(=O)O[C@@H]2CC | > 50 | 38.2 |  |  |  |  |  |  |  |  |  | 
CCCc1c(Cl)c(O)cc(O)c1Oc1c(Cl)c(O)c(Cl)c2c1C(=O)O[C@@H]2CC | > 50 | 27.6 |  |  |  |  |  |  |  |  |  | 
